A word on the IC50: it is the midpoint of a concentration-inhibition curve. A high value points to a need for much substance.

Where only a bound is given, the exact number is not on record here.

Consider ten molecules from US9174994B2, “Enhanced treatment regimens using mTor inhibitors” (INTELLIKINE LLC, priority 2011, dated 2015).

The test system of the assay is PC3. Nature of the assay: PC3 proliferation. It counts as cell-based. Particulars: Homo sapiens, PC-3; Table 1.
In the case of `Nc1nc2cc(-c3nn(C4CCOCC4)c4ncnc(N)c34)ccc2o1` [Compound 5], the IC50 was less than 0.1 µM. The same measure for `CC(C)n1nc(-c2ccc3nc(N)oc3c2)c2c(N)ncnc21` [Compound 4]: less than 10 µM.

In turn, `CC(=O)Nc1nc2cc(-c3nn(C(C)C)c4ncnc(N)c34)ccc2o1` [Compound 2] yielded an IC50 of less than 1 µM. `CC(C)n1nc(-c2ccc3c(N)noc3c2)c2c(N)ncnc21` [Compound 12] returned an IC50 greater than 10 µM. The same measure for `CC(C)n1cc(-c2ccc3oc(N)nc3c2)c2c(N)ncnc21` [Compound 8]: less than 0.1 µM; for `Nc1nc2cc(-c3cn(C4CCOCC4)c4ncnc(N)c34)ccc2o1` [Compound 9]: less than 0.1 µM; for `CC(C)n1nc(-c2ccc3onc(N)c3c2)c2c(N)ncnc21` [Compound 10]: greater than 10 µM.

For `CC(=O)Nc1noc2cc(-c3nn(C(C)C)c4ncnc(N)c34)ccc12` [Compound 11], the IC50 was greater than 10 µM.

Take `Nc1nc2cc(-c3nn(C4CCC(N5CCOCC5)CC4)c4ncnc(N)c34)ccc2o1` (stereo not shown) [Compound 6]: the IC50 is less than 1 µM. The same measure for `CC(=O)N1CCC(n2nc(-c3ccc4oc(N)nc4c3)c3c(N)ncnc32)CC1` [Compound 7]: less than 10 µM.
